The experiment addresses Collagenase 3 (Homo sapiens, UniProt P45452). As to the kind of experiment: Inhibition of human recombinant MMP13 expressed in Escherichia coli.

The structures appear in SMILES notation.

As usually defined, the IC50 is the midpoint of a concentration-inhibition curve. Regarding `COc1cc(-n2nc(C)c3c2OC(=N)C(C#N)C3c2ccccc2)c(Cl)c(Br)c1O` (stereo unspecified) [6-amino-1-(3-bromo-2-chloro-4-hydroxy-5-methoxyphenyl)-3-methyl-4-phenyl-1,4-dihydropyrano[2,3-c]pyrazole-5-carbonitrile], the concentration for half-maximal inhibition (IC50) is more than 40 µM.

The record behind these values is BindingDB's records for doi:10.1016/j.bmc.2008.03.004 (Florida Atlantic University, 2009).
